The values that follow come from patent US20230002359A1, “PESTICIDALLY ACTIVE FUSED BICYCLIC HETEROAROMATIC COMPOUNDS” (priority 2019, published 2023).

Holding throughout (assay type): in vivo
For experiment [1], the system named is Chilo suppressalis (Striped Rice Stemborer). Description: Example B3: Chilo suppressalis (striped rice stemborer), artificial diet, L2 larvae. The conditions noted are these: 144 h, read-out: control in at least one of the three categories (mortality, anti-feedant effect, or growth inhibition). The method, then: 24-well microtiter plates with artificial diet were treated with aqueous test solutions prepared from 10′000 ppm DMSO stock solutions by pipetting. After drying, the plates were infested with L2 larvae (6-8 per well). The samples were assessed for mortality, anti-feeding effect, and growth inhibition in comparison to untreated samples 6 days after infestation. Control of Chilo suppressalis by a test sample is given when at least one of the categories mortality, anti-feedant effect, and growth inhibition is higher than the untreated sample.

The subject of experiment [2] is Plutella xylostella (Diamond Back Moth). Description: Example B4: Plutella xylostella (diamond back moth), artificial diet, eggs, 24-well. The conditions noted are these: 192 h, read-out: control in at least one of the two categories (mortality or growth inhibition). The protocol: 24-well microtiter plates with artificial diet were treated with aqueous test solutions prepared from 10′000 ppm DMSO stock solutions by pipetting. After drying, Plutella eggs were pipetted through a plastic stencil onto a gel blotting paper and the plate was closed with it. The samples were assessed for mortality and growth inhibition in comparison to untreated samples 8 days after infestation.

Experiment [3] deals with Diabrotica Balteata (Corn Root Worm). Description: Example B1: Diabrotica balteata (corn root worm), maize sprouts sprayed, L2 larvae. As to conditions: 96 h, read-out: control in at least one of the two categories (mortality or growth inhibition). The protocol:
Maize sprouts placed onto an agar layer in 24-well microtiter plates were treated with aqueous test solutions prepared from 10′000 ppm DMSO stock solutions by spraying. After drying, the plates were infested with L2 larvae (6 to 10 per well). The samples were assessed for mortality and growth inhibition in comparison to untreated samples 4 days after infestation.

Where [4] appears, read: application rate of 200 ppm, 6 days after infestation, L2 larvae.
[5] abbreviates: application rate of 200 ppm, 8 days after infestation, eggs.
The mark [6] stands for this setting: application rate of 200 ppm, 4 days after infestation, L2 larvae.

Structures are written as SMILES. Where two headings read alike, the source gives them in different places.

On to `CC(c1nccnc1-n1nccn1)N(CC1CC1)c1ncnc2c(Cl)cc(C(F)(F)F)cc12` (stereo not shown) [P.76, 8-chloro-N-(cyclopropylmethyl)-N-[1-[3-(triazol-2-yl)pyrazin-2-yl]ethyl]-6-(trifluoromethyl)quinazolin-4-amine], for which the percent control (mortality, anti-feedant effect or growth inhibition) at 200 ppm in experiment [1] (setting [4]) was no less than 80%. The percent control (mortality or growth inhibition) at 200 ppm in experiment [2] (setting [5]) and in experiment [3] (setting [6]) was no less than 80% each time.
Regarding `CC(Nc1ncnc2c(C(F)(F)F)cc(C(F)(F)F)cc12)c1ncnn1-c1ccc(Br)cn1` (stereo not shown) [P.268, N-[1-[2-(5-bromo-2-pyridyl)-1,2,4-triazol-3-yl]ethyl]-6,8-bis(trifluoromethyl)quina-zolin-4-amine], the percent control (mortality or growth inhibition) at 200 ppm in experiment [2] (setting [5]) and in experiment [3] (setting [6]) was no less than 80% each time.
For the compound `CC(Nc1ncnc2c(C(F)(F)F)cc(C(F)(F)F)cc12)c1ncnn1-c1ccc(OC(F)F)cn1` (stereo not shown) [P.193, N-[1-[2-[5-(difluoromethoxy)-2-pyridyl]-1,2,4-triazol-3-yl]ethyl]-6,8-bis(trifluoromethyl)quina-zolin-4-amine], the percent control (mortality, anti-feedant effect or growth inhibition) at 200 ppm in experiment [1] (setting [4]) is no less than 80%. Besides, the percent control (mortality or growth inhibition) at 200 ppm in experiment [2] (setting [5]) and in experiment [3] (setting [6]) was no less than 80% throughout.
Take `CC(Nc1nc(Cl)nc2c(Cl)cc(C(F)(F)F)cc12)c1ncnn1-c1ncccn1` (stereo not shown) [P.48, 2,8-dichloro-N-[1-(2-pyrimidin-2-yl-1,2,4-triazol-3-yl)ethyl]-6-(trifluoromethyl)quinazolin-4-amine]: in experiment [1] (setting [4]), the percent control (mortality, anti-feedant effect or growth inhibition) at 200 ppm was no less than 80%.
Turning to `CC(c1nccnc1-c1ccc(C#N)cn1)N(CC1CC1)c1ncnc2c(Br)cc(C(F)(F)F)cc12` (stereo not shown) [P.73, 6-[3-[1-[[8-bromo-6-(trifluoromethyl)quinazolin-4-yl]-(cyclopropylmethyl)amino]ethyl]pyrazin-2-yl]pyridine-3-carbonitrile], the percent control (mortality, anti-feedant effect or growth inhibition) at 200 ppm in experiment [1] (setting [4]) was no less than 80%. The percent control (mortality or growth inhibition) at 200 ppm in experiment [2] (setting [5]) and in experiment [3] (setting [6]) was no less than 80% in each case.
For the compound `CC(Nc1ncnc2c(Br)cc(Cl)cc12)c1ncnn1-c1ccc(C#N)cn1` (stereo not shown) [P.158, 6-[5-[1-[(8-bromo-6-chloro-quinazolin-4-yl)amino]ethyl]-1,2,4-triazol-1-yl]pyridine-3-carbonitrile], the percent control (mortality, anti-feedant effect or growth inhibition) at 200 ppm in experiment [1] (setting [4]) is no less than 80%. The percent control (mortality or growth inhibition) at 200 ppm in experiment [2] (setting [5]) is no less than 80%.
With `CC(Nc1nc(Cl)nc2c(Br)cc(C(F)(F)F)cc12)c1ncnn1-c1ncccn1` (stereo not shown) [P.51, 8-bromo-2-chloro-N-[1-(2-pyrimidin-2-yl-1,2,4-triazol-3-yl)ethyl]-6-(trifluoromethyl)quinazolin-4-amine], the percent control (mortality, anti-feedant effect or growth inhibition) at 200 ppm in experiment [1] (setting [4]) is no less than 80%.
On to `CC(Nc1ncnc2c(C(F)(F)F)cc(C(F)(F)F)cc12)c1ncnn1-c1ncc(Br)cn1` (stereo not shown) [P.92, N-[1-[2-(5-bromopyrimidin-2-yl)-1,2,4-triazol-3-yl]ethyl]-6,8-bis(trifluoromethyl)quina-zolin-4-amine], for which, in experiment [1] (setting [4]), the percent control (mortality, anti-feedant effect or growth inhibition) at 200 ppm was no less than 80%. Besides, the percent control (mortality or growth inhibition) at 200 ppm in experiment [2] (setting [5]) and in experiment [3] (setting [6]) was no less than 80% throughout.
Regarding `CC(c1nccnc1-n1nccn1)N(CC1CC1)c1ncnc2c(C(F)(F)F)cc(Cl)cc12` (stereo not shown) [P.77, 6-chloro-N-(cyclopropylmethyl)-N-[1-[3-(triazol-2-yl)pyrazin-2-yl]ethyl]-8-(trifluoromethyl)quinazolin-4-amine], the percent control (mortality, anti-feedant effect or growth inhibition) at 200 ppm in experiment [1] (setting [4]) was no less than 80%. The percent control (mortality or growth inhibition) at 200 ppm in experiment [2] (setting [5]) and in experiment [3] (setting [6]) was no less than 80% in each case.
As to `CC(Nc1ncnc2c(C(F)(F)F)cc(C(F)(F)F)cc12)c1ncnn1-c1ccc(F)cn1` (stereo not shown) [P.233, N-[1-[2-(5-fluoro-2-pyridyl)-1,2,4-triazol-3-yl]ethyl]-6,8-bis(trifluoromethyl)quina-zolin-4-amine], the percent control (mortality or growth inhibition) at 200 ppm in experiment [2] (setting [5]) is no less than 80%.
Regarding `CC(Nc1nccc2c(C(F)(F)F)cc(C(F)(F)F)cc12)c1ncnn1-c1ccc(C#N)cn1` (stereo not shown) [P.210, 6-[5-[1-[[5,7-bis(trifluoromethyl)-1-isoquinolyl]amino]ethyl]-1,2,4-triazol-1-yl]pyridine-3-carbonitrile], the percent control (mortality or growth inhibition) at 200 ppm in experiment [2] (setting [5]) and in experiment [3] (setting [6]) was no less than 80% throughout.
Regarding `C[C@@H](c1ncnn1-c1ccc(C#N)cn1)N(C(=O)Oc1ccccc1)c1ncnc2c(C(F)(F)F)cc(C(F)(F)F)cc12` [P.226, phenyl N-[6,8-bis(trifluoromethyl)quina-zolin-4-yl]-N-[(1S)-1-[2-(5-cyano-2-pyridyl)-1,2,4-triazol-3-yl]ethyl]carbamate], the percent control (mortality, anti-feedant effect or growth inhibition) at 200 ppm in experiment [1] is no less than 80%. The percent control (mortality or growth inhibition) at 200 ppm in experiment [2] and in experiment [3] was no less than 80% throughout.
With `CC(Nc1ncnc2c(C(F)(F)F)cc(Br)cc12)c1nccnc1-c1ccc(Br)cn1` (stereo not shown) [P.198, 6-bromo-N-[1-[3-(5-bromo-2-pyridyl)pyrazin-2-yl]ethyl]-8-(trifluoromethyl)quinazolin-4-amine], the percent control (mortality, anti-feedant effect or growth inhibition) at 200 ppm in experiment [1] (setting [4]) is no less than 80%. Moreover, in experiment [2] (setting [5]), the percent control (mortality or growth inhibition) at 200 ppm is no less than 80%.
Consider `C[C@@H](c1ncnn1-c1ccc(C#N)cn1)N(C)c1ncnc2c(C(F)(F)F)cc(C(=O)C3CC3)cc12` [P.170, 6-[5-[(1S)-1-[[6-(cyclopropanecarbonyl)-8-(trifluoromethyl)quinazolin-4-yl]-methyl-amino]ethyl]-1,2,4-triazol-1-yl]pyridine-3-carbonitrile], for which the percent control (mortality, anti-feedant effect or growth inhibition) at 200 ppm in experiment [1] (setting [4]) is no less than 80%. In addition, the percent control (mortality or growth inhibition) at 200 ppm in experiment [2] (setting [5]) was no less than 80%.
On to `CC(c1nccnc1-n1nccn1)N(C)c1ncnc2c(OC(F)F)cc(Br)cc12` (stereo not shown) [P.180, 6-bromo-8-(difluoromethoxy)-N-methyl-N-[1-[3-(triazol-2-yl)pyrazin-2-yl]ethyl]quinazolin-4-amine], for which the percent control (mortality, anti-feedant effect or growth inhibition) at 200 ppm in experiment [1] (setting [4]) is no less than 80%. For the same compound, the percent control (mortality or growth inhibition) at 200 ppm in experiment [2] (setting [5]) and in experiment [3] (setting [6]) was no less than 80% throughout.
As to `COC(=O)N(c1ncnc2c(C(F)(F)F)cc(C(F)(F)F)cc12)C(C)c1ncnn1-c1ccc(C#N)cn1` (stereo not shown) [P.167, methyl N-[6,8-bis(trifluoromethyl)quina-zolin-4-yl]-N-[1-[2-(5-cyano-2-pyridyl)-1,2,4-triazol-3-yl]ethyl]carbamate], in experiment [1], the percent control (mortality, anti-feedant effect or growth inhibition) at 200 ppm was no less than 80%. Besides, the percent control (mortality or growth inhibition) at 200 ppm in experiment [2] was no less than 80%.
Take `CC(Nc1ccnc2c(C(F)(F)F)cc(C(F)(F)F)cc12)c1nccnc1-c1ncccn1` (stereo not shown) [P.85, N-[1-(3-pyrimidin-2-ylpyrazin-2-yl)ethyl]-6,8-bis(trifluoromethyl)quino-lin-4-amine]: the percent control (mortality, anti-feedant effect or growth inhibition) at 200 ppm in experiment [1] (setting [4]) was no less than 80%. In addition, the percent control (mortality or growth inhibition) at 200 ppm in experiment [2] (setting [5]) and in experiment [3] (setting [6]) was no less than 80% throughout.
In the case of `COc1ccc(CN(c2ncnc3c(C(F)(F)F)cc(C(F)(F)F)cc23)C(C)c2nccnc2-c2ncccn2)cc1` (stereo not shown) [P.225, N-[(4-methoxyphenyl)methyl]-N-[1-(3-pyrimidin-2-ylpyrazin-2-yl)ethyl]-6,8-bis(trifluoromethyl)quina-zolin-4-amine], the percent control (mortality, anti-feedant effect or growth inhibition) at 200 ppm in experiment [1] (setting [4]) was no less than 80%. Besides, the percent control (mortality or growth inhibition) at 200 ppm in experiment [2] (setting [5]) and in experiment [3] (setting [6]) was no less than 80% in each case.
With `CC(c1nccnc1-c1ncccn1)N(CC1CC1)c1ncnc2c(C(F)(F)F)cc(Br)cc12` (stereo not shown) [P.80, 6-bromo-N-(cyclopropylmethyl)-N-[1-(3-pyrimidin-2-ylpyrazin-2-yl)ethyl]-8-(trifluoromethyl)quinazolin-4-amine], the percent control (mortality, anti-feedant effect or growth inhibition) at 200 ppm in experiment [1] (setting [4]) was no less than 80%. Further, the percent control (mortality or growth inhibition) at 200 ppm in experiment [2] (setting [5]) and in experiment [3] (setting [6]) was no less than 80% in each case.
For `C[C@@H](c1ncnn1-c1ncccn1)N(C)c1c(Cl)cnc2c(C(F)(F)F)cc(C(F)(F)F)cc12` [P.181, 3-chloro-N-methyl-N-[(1S)-1-(2-pyrimidin-2-yl-1,2,4-triazol-3-yl)ethyl]-6,8-bis(trifluoromethyl)quinolin-4-amine], the percent control (mortality or growth inhibition) at 200 ppm in experiment [2] (setting [5]) and in experiment [3] (setting [6]) was no less than 80% throughout.
Turning to `CC(c1nccnc1-c1ccc(Br)cn1)N(C)c1ncnc2c(C(F)(F)F)cc(Br)cc12` (stereo not shown) [P.196, 6-bromo-N-[1-[3-(5-bromo-2-pyridyl)pyrazin-2-yl]ethyl]-N-methyl-8-(trifluoromethyl)quinazolin-4-amine], the percent control (mortality or growth inhibition) at 200 ppm in experiment [3] (setting [6]) is no less than 80%.
For `CC(Nc1ncnc2c(Cl)cc(C(F)(F)F)cc12)c1ncnn1-c1ccc(Br)cn1` (stereo not shown) [P.267, N-[1-[2-(5-bromo-2-pyridyl)-1,2,4-triazol-3-yl]ethyl]-8-chloro-6-(trifluoromethyl)quinazolin-4-amine], the percent control (mortality, anti-feedant effect or growth inhibition) at 200 ppm in experiment [1] (setting [4]) was no less than 80%.
